{
  "source": "paper PMC5133935",
  "about": "“Hydrostatin-TL1, an Anti-Inflammatory Active Peptide from the Venom Gland of Hydrophis cyanocinctus in the South China Sea” (International Journal of Molecular Sciences, 2016)",
  "key": {"TNF-α/TNFR2": {"tested_on": "TNF-α/TNFR2", "test": "Competitive ELISA, inhibition of TNF-α binding to TNFR2", "parameters": "species or system human", "conditions": "sTNFR2-coated plate, H-TL1 0–1 μM, n = 3"}, "L929 cells": {"tested_on": "L929 cells", "test": "MTT assay, protection from TNF-α-mediated cytotoxicity", "format": "cell-based, mouse", "conditions": "H-TL1 1 to 1000 nM; hrTNF-α 20 ng/mL + 0.2 μg/mL actinomycin D; 18–20 h, 37 °C; MTT 490 nm; n = 5", "method": "We used the L929 cell line, which is commonly chosen by researchers, to evaluate the effects of H-TL1 on TNF-α-mediated cytotoxicity. The cells were treated with TNF-α and 0.2 μg/mL actinomycin D in the presence of graded concentrations of H-TL1. Cell viability was evaluated using MTT assay. […] Furthermore, H-TL1 was not cytotoxic against L929 cells at 100 μM (data not shown), which far exceeds the concentration of H-TL1 used in the in vitro assays.\nThe H. cyanocinctus specimens were captured during September 2005 in the South China Sea near Guangdong Province, People’s Republic of China. After collection, the snakes were killed, and the venom glands were isolated and immediately frozen in liquid nitrogen until use. HEK-293 human embryonic kidney and L929 mouse fibroblast cell lines were obtained from ATCC and cultured in Dulbecco’s modified Eagle’s medium (DMEM, Sigma-Aldrich, St. Louis, MO, USA) containing 10% (v/v) heat-inactivated fetal bovine serum (FBS, Gibco, BRL, Grand Island, NY, USA) at 37 °C in an atmosphere of 5% CO2. […]\nFor MTT cell viability assay, L929 cells were seeded onto a 96-well plate and cultured for 12 h. […] Following incubation at 37 °C for 18–20 h, MTT solution was added, followed by incubation at 37 °C for 4 h, and then the absorbance was determined at 490 nm. […]"}, "mammalian cells": {"tested_on": "mammalian cells", "test": "Cytotoxicity toward mammalian cells (general statement)", "format": "cell-based", "conditions": "conclusion statement"}, "[1]": {"tested_on": "DSS-induced inflammation of colonic mucosa, BALB/c mice", "test": "Colon histopathology in DSS-induced colitis", "format": "in vivo, mouse", "conditions": "for colon morphology (H&E): H&E 40×", "method": "(§1) To induce colitis, 6–8 week old male BALB/c mice were administered 2.5% DSS solution in their drinking water for 7–8 consecutive days, ad libitum. Importantly, 30–40 kDa DSS was used to establish the animal model in this study because it is known to induce more severe colitis than 5 and 500 kDa DSS [37]. The mice were concomitantly administered H-TL1 (0.5 or 1 mg/kg) once daily for 7–8 consecutive days by intraperitoneal injection. Establishment of the DSS-induced colitis was evidenced by an increase in DAI, with associated weight loss, loose stool consistency, and presence of blood in the feces. DAI was monitored during the entire experiment and was assessed according to the method described in Table 1.\nThe colonic tissue samples were fixed in 4% neutral formalin, dehydrated with increasing concentrations of ethanol, embedded in paraffin, and subsequently cut into 5-μm thick sections, which were mounted on slides, cleared, hydrated, and stained with hematoxylin and eosin (H&E). Histological grading was assessed according to previously described criteria (Table 2), and the scoring criteria used were similar to those described previously."}, "[2]": {"tested_on": "DSS-induced colitis in BALB/c mice", "test": "DSS-induced acute colitis (symptoms, DAI, body weight, spleen, colon length)", "format": "in vivo, mouse", "excerpt": "The H. cyanocinctus specimens were captured during September 2005 in the South China Sea near Guangdong Province, People’s Republic of China. After collection, the snakes were killed, and the venom glands were isolated and immediately frozen in liquid nitrogen until use. HEK-293 human embryonic kidney and L929 mouse fibroblast cell lines were obtained from ATCC and cultured in Dulbecco’s modified Eagle’s medium (DMEM, Sigma-Aldrich, St. Louis, MO, USA) containing 10% (v/v) heat-inactivated fetal bovine serum (FBS, Gibco, BRL, Grand Island, NY, USA) at 37 °C in an atmosphere of 5% CO2. The BLT5403 E. coli strain (used as the phage host strain) was from Novagen (Merck) and was cultured at 37 °C for propagation. The specific pathogen-free (SPF) male BALB/c and C57BL/6 mice (both 6–8 weeks old), weighing 20 ± 2 g were purchased from Shanghai SLAC Laboratory Animal Co., Ltd. (Shanghai, China). The mice were housed in animal facilities with 50% humidity under a 12-h light-dark cycle, fed a standard pellet diet, and provided with tap water ad libitum. The animal experimental protocols in this research, including venom gland isolation and the mouse study, were approved by the Animal Care and Use Committee of the Second Military Medical University.\nas §1"}, "[3]": {"tested_on": "NF-κB and MAPK activation in colonic tissue of DSS mice", "test": "Western blot of colonic tissue in DSS-induced colitis", "format": "in vivo, mouse", "conditions": "H-TL1 vs. vehicle, p-ERK (Thr202/Tyr204), p-JNK (Thr183/Tyr185), p-IκB (Ser32/36)", "method": "(§2) For Western blotting, the cell or tissue specimen extracts were resolved in a 10% SDS-PAGE gel, and then the separated proteins were transferred to a nitrocellulose filter membrane. The antigens were detected by using specific antibodies against total and phosphorylated IκB, p38, ERK, and JNK followed by incubation with the respective secondary antibodies. GAPDH was simultaneously detected as the control to compare the protein loading in each lane. The mouse monoclonal anti-IκB, mouse monoclonal anti-p-IκB (Ser32/36), rabbit monoclonal anti-ERK, and rabbit monoclonal anti-p-ERK (Thr202/Tyr204) antibodies were from Cell Signaling Technologies (Beverly, MA, USA). The mouse polyclonal anti-p-p38 (Thr180/Tyr182), rabbit polyclonal anti-p38, rabbit monoclonal anti-p-JNK (Thr183/Tyr185), and mouse monoclonal anti-JNK antibodies were from Thermo Fisher Scientific (Rockford, IL, USA). The rabbit monoclonal anti-GAPDH antibody was from Santa Cruz Biotechnology (Santa Cruz, CA, USA), and the fluorescent-labeled secondary antibodies were from Li-COR Biosciences (Lincoln, NE, USA).\nTo induce colitis, 6–8 week old male BALB/c mice were administered 2.5% DSS solution in their drinking water for 7–8 consecutive days, ad libitum. […] DAI was monitored during the entire experiment and was assessed according to the method described in Table 1."}, "[4]": {"tested_on": "IL-1β-induced phosphorylation of IκB", "test": "Western blot, IL-1β-induced phosphorylation of IκB", "format": "cell-based", "conditions": "IL-1β as activator of NF-κB", "excerpt": "The NF-κB and MAPKs pathways are key signaling pathways of TNF-α-mediated inflammation. Therefore, we analyzed the mechanisms underlying H-TL1-induced inhibition of TNF-α-mediated inflammation by Western blotting in HEK-293 cells. […] To identify the specific effects of H-TL1 on TNF-α downstream signaling, we induced IL-1β as a potent activator of NF-κB that is specific to that pathway.\nas §2, with “The rabbit monoclonal anti-GAPDH antibody was from Santa Cruz Biotechnology (Santa Cruz, CA, USA), and the fluorescent-labeled secondary antibodies were from Li-COR Biosciences (Lincoln, NE, USA).” left out"}},
  "note": "Entries after “also recorded” stand apart in the source; their conditions may differ. No end group written: not given here.",
  "data": [
    {"substance": "ATSKPSLKC-OH [H-TL1]", "values": [
      {"measurement": "inhibition of TNF-α/TNFR2 binding, in words", "setting": "TNF-α/TNFR2", "value": "had little impact on TNF-α/TNFR2 interactions; also recorded: the percent inhibition had no apparent linear relation to the H-TL1 concentration"},
      {"measurement": "effect on the binding of TNF-α with TNFR2 (inhibition)", "setting": "TNF-α/TNFR2; hrTNF-α 20 ng/mL", "value": "approximately 20%"},
      {"measurement": "inhibition of TNF-α-induced L929 cell death", "setting": "L929 cells", "value": "inhibited TNF-α-induced L929 cell death in a concentration-dependent manner; also recorded: improved survival in TNF-α-treated L929 cells"},
      {"measurement": "cytotoxicity toward mammalian cells", "setting": "mammalian cells", "value": "little cytotoxicity toward mammalian cells"},
      {"measurement": "colon morphology (H&E)", "setting": "[1]; H-TL1 0.5 mg/kg, 0.5 mg/kg", "value": "serious colonic damage that was comparable to that of the DSS + vehicle-treated mice; also recorded: had little effect on DSS-induced colonic inflammation"},
      {"measurement": "colon morphology (H&E)", "setting": "[1]; H-TL1 1 mg/kg, 1 mg/kg", "value": "remarkably alleviated; also recorded: alleviated DSS-induced colonic inflammation"},
      {"measurement": "total histological score", "setting": "[1]; H-TL1 1 mg/kg, n = 8, ** p < 0.01 vs. DSS only group", "value": "significantly reduces DSS-induced inflammation of colonic mucosa"},
      {"measurement": "recovery / general health", "setting": "[2]; DSS + H-TL1 1 mg/kg, n = 8", "value": "recovered, appearing similar in health to that of the normal group"},
      {"measurement": "reduction in colon length", "setting": "[2]; H-TL1 0.5 mg/kg, n = 8, * p < 0.05 vs. DSS group", "value": "significantly attenuated the reduction in colon length"},
      {"measurement": "disease activity index (DAI)", "setting": "[2]; H-TL1 1 mg/kg i.p. once daily, Days 6–8, 2.5% DSS, n = 8, * p < 0.05, ** p < 0.01 vs. DSS group", "value": "significantly decreased"},
      {"measurement": "loss of body weight", "setting": "[2]; H-TL1 1 mg/kg i.p. once daily, by Day 8, DSS + vehicle lost an average of 4.3 g more than normal group, n = 8", "value": 1.6, "unit": "g"},
      {"measurement": "symptoms associated with DSS-induced colitis", "setting": "[2]; H-TL1 1 mg/kg i.p. once daily, vs. vehicle-treated mice", "value": "significantly improved"},
      {"measurement": "spleen/body weight ratio", "setting": "[2]; H-TL1 1 mg/kg, n = 8, * p < 0.05 vs. DSS alone", "value": "significantly lower"},
      {"measurement": "reduction in colon length", "setting": "[2]; H-TL1 1 mg/kg, n = 8, *** p < 0.001 vs. DSS group", "value": "significantly attenuated the reduction in colon length"},
      {"measurement": "activation (phosphorylation) of JNK, ERK, and IκB in colonic tissue", "setting": "[3]", "value": "JNK, ERK, and IκB were activated; however, this effect was inhibited by H-TL1 treatment"},
      {"measurement": "inhibition of IL-1β-induced phosphorylation of IκB", "setting": "[4]", "value": "failed to inhibit the phosphorylation of IκB induced by IL-1β"}
    ]}
  ]
}
